Experimental data: patent US7989590B2, “Peptides that increase collagen or hyaluronic acid production” (Rohto Pharmaceutical Co., Ltd, priority 2005, dated 2011)
Read-outs that look alike come from different tables or passages of the source. Where a SMILES comes first, the peptide text is derived from it. Where no end group is shown, it is not given here.

Assays:
[1] = test system: Fibroblasts derived from human normal skin (CRL-1836; ATCC); experiment: Toxicity test: number of viable cells with Cell Counting Kit-8; settings: for Number of Viable Cells (cells): cells after 72 hours of culture
From the text: (§1) For the cells after the culture solution was collected in Example 6, the number of viable cells was counted in the same manner as in Example 4.
(§2) For the cells after the culture solution was collected in Example 10, the number of viable cells was counted as in the same manner in Example 4.
(§3) For the cells after the culture solution was collected in Example 14, the number of viable cells was counted in the same manner as in Example 4.
(§4) For the cells after the culture solution was collected in Example 17, the number of viable cells was counted in the same manner as in Example 4.
(§5) For the cells after the culture solution was collected in Example 20, the number of viable cells was counted in the same manner as in Example 4.

[2] = test system: Fibroblasts derived from human normal skin (CRL-1836; ATCC)
From the text: as §1, §2, §3, §4, §5

LEHAF [LEHAF, Leu-Glu-His-Ala-Phe]
number of viable cells, result in words ([1]; 1 or 3 μg/ml, versus control): no significant decrease
Number of Viable Cells (cells) ([1]; peptide 1 μg/ml): 3.0 × 10^4 cells
Number of Viable Cells (cells) ([1]; peptide 3 μg/ml): 3.0 × 10^4 cells

CC(C)C[C@H](N)C(=O)N[C@@H](CCC(=O)O)C(=O)N[C@@H](CCCCN)C(=O)N[C@@H](C)C(=O)O [LEKA, Leu-Glu-Lys-Ala] (H-LEKA-OH)
number of viable cells, result in words ([1]; 10 μg/ml, versus control): no decrease
Number of Viable Cells (cells) ([1]; peptide 10 μg/ml): 3.6 × 10^4 cells

CC(C)C[C@H](N)C(=O)N[C@@H](CCC(=O)O)C(=O)N[C@@H](Cc1c[nH]cn1)C(=O)N[C@@H](C)C(N)=O [C-terminal-Amidated LEHA] (H-LEHA-NH2)
Number of Viable Cells (cells) ([1]; peptide 10 μg/ml): 2.6 × 10^4 cells

CC(C)C[C@H](N)C(=O)N[C@@H](CCC(=O)O)C(=O)N[C@@H](Cc1c[nH]cn1)C(=O)N[C@@H](C)C(=O)O [LEHA, Leu-Glu-His-Ala] (H-LEHA-OH)
number of viable cells, result in words ([1]; LEH and LEHA peptides prepared from soy protein, stated in present tense): no significant decrease
Number of Viable Cells (cells) ([1]; peptide 10 μg/ml): 2.9 × 10^4 cells

CC(C)C[C@H](N)C(=O)N[C@@H](CCC(=O)O)C(=O)N[C@@H](Cc1c[nH]cn1)C(=O)O [LEH, Leu-Glu-His] (H-Leu-Glu-His-OH)
number of viable cells, result in words [2]: no significant decrease

CC(C)C[C@H](N)C(=O)N[C@@H](CC(=O)O)C(=O)N[C@@H](Cc1c[nH]cn1)C(=O)N[C@@H](C)C(=O)O [LDHA, Leu-Asp-His-Ala] (H-LDHA-OH)
number of viable cells, result in words ([1]; 1 μg/ml, versus control): no decrease
Number of Viable Cells (cells) ([1]; peptide 1 μg/ml): 3.3 × 10^4 cells

CC(=O)N[C@@H](CC(C)C)C(=O)N[C@@H](CCC(=O)O)C(=O)N[C@@H](Cc1c[nH]cn1)C(=O)N[C@@H](C)C(=O)O [N-terminal-Acetylated-LEHA] (Ac-LEHA-OH)
Number of Viable Cells (cells) ([1]; peptide 10 μg/ml): 2.8 × 10^4 cells
